The record followed here is patent publication US20250034132A1, “PROLYL HYDROXYLASE DOMAIN-CONTAINING PROTEIN (PHD) INHIBITORS AND USES THEREOF” (Insilico Medicine IP Limited, priority 2021, published 2025).

Structures are written as SMILES.

The experiment deals with PHD2 (Homo sapiens, UniProt Q9GZT9). Kind of experiment: PHD2 enzymatic assay (AlphaScreen). The experiment is classed as biochemical. Particulars: IC50 from % inhibition. On the technique in general: Alpha assays give light when donor and acceptor beads are brought close together.
Sequence of PHD2 (Q9GZT9 whole entry): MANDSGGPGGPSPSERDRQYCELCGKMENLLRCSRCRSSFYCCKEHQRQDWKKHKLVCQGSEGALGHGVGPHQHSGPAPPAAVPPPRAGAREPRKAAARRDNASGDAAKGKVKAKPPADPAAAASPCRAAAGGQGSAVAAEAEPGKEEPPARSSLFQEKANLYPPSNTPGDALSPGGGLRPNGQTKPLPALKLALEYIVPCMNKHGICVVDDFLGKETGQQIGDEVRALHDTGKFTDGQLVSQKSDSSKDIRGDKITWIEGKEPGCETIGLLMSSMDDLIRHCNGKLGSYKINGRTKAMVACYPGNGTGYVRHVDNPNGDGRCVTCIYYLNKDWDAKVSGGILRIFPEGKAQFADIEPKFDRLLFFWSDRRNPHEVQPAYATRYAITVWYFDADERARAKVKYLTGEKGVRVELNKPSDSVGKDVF

Regarding `N#Cc1ccc(CNC(=O)c2ncc3nc(N4CC(N)C4)ccc3c2O)cn1` [Example 132], the 50% inhibitory concentration (IC50) is < 5 nM.

Broadly, the IC50 is the point on the concentration scale where inhibition reaches its midpoint. Higher therefore signals weaker potency.
